Biological target: T1, AXL (Homo sapiens, UniProt P30530)
T1 construct: endogenous in cells; host or cells: A-172 glioblastoma cells (ATCC #CRL-1620)
T1 sequence (P30530 26-894): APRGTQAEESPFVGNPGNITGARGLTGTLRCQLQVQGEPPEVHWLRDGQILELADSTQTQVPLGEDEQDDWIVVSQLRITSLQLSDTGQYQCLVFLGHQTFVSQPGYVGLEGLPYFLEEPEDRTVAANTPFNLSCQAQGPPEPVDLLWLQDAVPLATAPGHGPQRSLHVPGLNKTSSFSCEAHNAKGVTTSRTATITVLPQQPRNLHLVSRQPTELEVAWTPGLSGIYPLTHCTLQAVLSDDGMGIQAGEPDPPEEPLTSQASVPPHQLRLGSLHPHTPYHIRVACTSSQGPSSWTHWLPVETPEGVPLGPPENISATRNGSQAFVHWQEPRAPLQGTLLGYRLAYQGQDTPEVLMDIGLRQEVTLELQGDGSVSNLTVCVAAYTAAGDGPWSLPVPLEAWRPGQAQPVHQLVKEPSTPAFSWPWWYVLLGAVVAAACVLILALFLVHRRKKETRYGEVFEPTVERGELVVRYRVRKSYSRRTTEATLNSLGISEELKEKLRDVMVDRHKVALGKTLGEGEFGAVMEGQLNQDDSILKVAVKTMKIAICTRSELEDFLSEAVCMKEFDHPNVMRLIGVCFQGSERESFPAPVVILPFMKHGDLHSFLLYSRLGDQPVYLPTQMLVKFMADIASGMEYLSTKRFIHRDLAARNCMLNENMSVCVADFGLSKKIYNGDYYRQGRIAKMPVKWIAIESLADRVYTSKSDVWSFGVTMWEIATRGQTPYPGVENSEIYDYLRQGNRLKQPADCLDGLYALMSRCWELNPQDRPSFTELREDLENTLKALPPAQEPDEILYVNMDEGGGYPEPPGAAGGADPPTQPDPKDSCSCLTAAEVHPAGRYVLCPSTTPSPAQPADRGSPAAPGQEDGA
Assay: AXL autophosphorylation ELISA in A-172 cells
Format: cell-based
Details: cellular activity, Gas6-stimulated, phospho-AXL ELISA
How it was run: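 Serum-starved (24 h) A-172 glioblastoma cells got an 8-point compound series (0.3% DMSO) for 1 h, then 1 μg/mL human Gas6 for 15 min. Lysate phospho-AXL quantified by ELISA against phospho-AXL standard, normalized to DMSO and reference-inhibitor controls; IC50 by 4-parameter logistic fit.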

Compound	IC50 [nM]
O=C(Nc1ccc(F)cc1)C1(C(=O)Nc2ccc(Oc3ccnc4cc(C5=CCOC5)ccc34)cc2)CC1 [Compound 95, 1-N-[4-[7-(2,5-Dihydrofuran-3-yl)quinolin-4-yl]oxyphenyl]-1-N′-(4-fluorophenyl)cyclopropane-1,1-dicarboxamide]	10 to 100
Cc1cn(-c2ccc3c(Oc4ccc(NC(=O)C5(C(=O)Nc6ccc(F)cc6)CC5)cc4)ccnc3c2)cn1 [Compound 87, 1-N′-(4-Fluorophenyl)-1-N-[4-[7-(4-methylimidazol-1-yl)quinolin-4-yl]oxyphenyl]cyclopropane-1,1-dicarboxamide]	≤ 10
O=C(Nc1ccc(F)cc1)C1(C(=O)Nc2ccc(Oc3ccnc4cc(-c5ccn(C6CC6)n5)ccc34)cc2)CC1 [Compound 98, 1-N-[4-[7-(1-Cyclopropylpyrazol-3-yl)quinolin-4-yl]oxyphenyl]-1-N′-(4-fluorophenyl)cyclopropane-1,1-dicarboxamide]	10 to 100
O=C(Nc1ccc(F)cc1)C1(C(=O)Nc2ccc(Oc3ccnc4cc(-c5cnn(CF)c5)ccc34)cc2)CC1 [Compound 94, 1-N-[4-[7-[1-(Fluoromethyl)pyrazol-4-yl]quinolin-4-yl]oxyphenyl]-1-N′-(4-fluorophenyl)cyclopropane-1,1-dicarboxamide]	≤ 10
CC(=O)N1CCC(c2ccc3c(Oc4ccc(NC(=O)C5(C(=O)Nc6ccc(F)cc6)CC5)cc4)ccnc3c2)C1 (stereo not drawn) [Compound 92, 1-N-[4-[7-(1-Acetylpyrrolidin-3-yl)quinolin-4-yl]oxyphenyl]-1-N′-(4-fluorophenyl)cyclopropane-1,1-dicarboxamide]	10 to 100
CS(=O)(=O)N1CCC(c2ccc3c(Oc4ccc(NC(=O)C5(C(=O)Nc6ccc(F)cc6)CC5)cc4)ccnc3c2)C1 (stereo not drawn) [Compound 93, 1-N′-(4-Fluorophenyl)-1-N-[4-[7-(1-methylsulfonylpyrrolidin-3-yl)quinolin-4-yl]oxyphenyl]cyclopropane-1,1-dicarboxamide]	100 to 300
Cc1cc2c(Oc3cc(F)c(NC(=O)C4(C(=O)Nc5ccc(F)cc5)CC4)cc3F)ccnc2cc1-c1cnn(C)c1 [Compound 105, 1-N′-[2,5-Difluoro-4-[6-methyl-7-(1-methylpyrazol-4-yl)quinolin-4-yl]oxyphenyl]-1-N-(4-fluorophenyl)cyclopropane-1,1-dicarboxamide]	10 to 100
O=C(Nc1ccc(F)cc1)C1(C(=O)Nc2ccc(Oc3ccnc4cc(-c5cc6ccccn6n5)ccc34)cc2)CC1 [Compound 104, 1-N′-(4-Fluorophenyl)-1-N-[4-(7-pyrazolo[1,5-a]pyridin-2-ylquinolin-4-yl)oxyphenyl]cyclopropane-1,1-dicarboxamide]	100 to 300
Nc1cc(-c2ccc3c(Oc4ccc(NC(=O)C5(C(=O)Nc6ccc(F)cc6)CC5)cc4)ccnc3c2)ccn1 [Compound 97, 1-N-[4-[7-(2-Aminopyridin-4-yl)quinolin-4-yl]oxyphenyl]-1-N′-(4-fluorophenyl)cyclopropane-1,1-dicarboxamide]	10 to 100
Cc1cnn(-c2ccc3c(Oc4ccc(NC(=O)C5(C(=O)Nc6ccc(F)cc6)CC5)cc4)ccnc3c2)c1 [Compound 96, 1-N′-(4-Fluorophenyl)-1-N-[4-[7-(4-methylpyrazol-1-yl)quinolin-4-yl]oxyphenyl]cyclopropane-1,1-dicarboxamide]	100 to 300
O=C(Nc1ccc(F)cc1)C1(C(=O)Nc2ccc(Oc3ccnc4cc(-c5ccn(CF)n5)ccc34)cc2)CC1 [Compound 102, 1-N-[4-[7-[1-(Fluoromethyl)pyrazol-3-yl]quinolin-4-yl]oxyphenyl]-1-N′-(4-fluorophenyl)cyclopropane-1,1-dicarboxamide]	10 to 100
O=C(Nc1ccc(F)cc1)C1(C(=O)Nc2ccc(Oc3ccnc4cc(-c5ccccc5)ccc34)cc2)CC1 [Compound 55, 1-N′-(4-Fluorophenyl)-1-N-[4-(7-phenylquinolin-4-yl)oxyphenyl]cyclopropane-1,1-dicarboxamide]	100 to 300

Next, values leading:

IC50 [nM]	Compound
100 to 300	Cc1ccn(-c2ccc3c(Oc4ccc(NC(=O)C5(C(=O)Nc6ccc(F)cc6)CC5)cc4)ccnc3c2)n1 [Compound 91, 1-N′-(4-Fluorophenyl)-1-N-[4-[7-(3-methylpyrazol-1-yl)quinolin-4-yl]oxyphenyl]cyclopropane-1,1-dicarboxamide]
10 to 100	Cc1cc2c(Oc3ccc(NC(=O)C4(C(=O)Nc5ccc(F)cc5)CC4)cc3)ccnc2cc1-c1cc[nH]n1 [Compound 107, 1-N′-(4-Fluorophenyl)-1-N-[4-[6-methyl-7-(1H-pyrazol-3-yl)quinolin-4-yl]oxyphenyl]cyclopropane-1,1-dicarboxamide]
10 to 100	Cc1cc(-c2ccc3c(Oc4ccc(NC(=O)C5(C(=O)Nc6ccc(F)cc6)CC5)cc4)ccnc3c2)nn1C [Compound 101, 1-N-[4-[7-(1,5-Dimethylpyrazol-3-yl)quinolin-4-yl]oxyphenyl]-1-N′-(4-fluorophenyl)cyclopropane-1,1-dicarboxamide]
10 to 100	Nc1n[nH]cc1-c1ccc2c(Oc3ccc(NC(=O)C4(C(=O)Nc5ccc(F)cc5)CC4)cc3)ccnc2c1 [Compound 90, 1-N-[4-[7-(3-Amino-1H-pyrazol-4-yl)quinolin-4-yl]oxyphenyl]-1-N′-(4-fluorophenyl)cyclopropane-1,1-dicarboxamide]
10 to 100	Cc1cc(-c2ccc3c(Oc4ccc(NC(=O)C5(C(=O)Nc6ccc(F)cc6)CC5)cc4)ccnc3c2)n[nH]1 [Compound 99, 1-N′-(4-Fluorophenyl)-1-N-[4-[7-(5-methyl-1H-pyrazol-3-yl)quinolin-4-yl]oxyphenyl]cyclopropane-1,1-dicarboxamide]
10 to 100	Cc1cc2c(Oc3ccc(NC(=O)C4(C(=O)Nc5ccc(F)cc5)CC4)cc3)ccnc2cc1-c1ccn(C)n1 [Compound 108, 1-N′-(4-Fluorophenyl)-1-N-[4-[6-methyl-7-(1-methylpyrazol-3-yl)quinolin-4-yl]oxyphenyl]cyclopropane-1,1-dicarboxamide]
